Source: patent publication US9359373B1, “Lipophilic N-substituted norcantharimide derivatives and uses thereof” (priority 2014, dated 2016)

How the values were obtained:
[1] = test system: human leukemia cells (Jurkat T cells); test: Cell viability (CCK-8), PMAI activated leukemia Jurkat T cells model; assay type: cell-based; conditions: 24 hours (NC15: 24 and 48 hours), FIG. 4, FIG. 6
Protocol: The cell viability assays were performed in 96-well plates. The 100 μl of cell suspensions (NHL or Jurkat T cells, 5×10^3 cells/well, serum-free medium) were inoculated in the wells and the plates were pre-incubated in the incubator for 24 hours (pre-incubated for 22 hours and stimulated with PMA 5 ng/ml plus ionomycin 250 ng/ml for 2 hours in PMAI-treated groups). Then, various concentrations of norcantharidin (0, 2, 4, 15, 30 and 60 μM) or NOC15 (0, 0.25, 0.5, 1, 2 and 4 μM) were added into the culture media in the wells. After 24 hours of incubation, the cell viability of NHL and Jurkat T cells was measured by cell counting kit-8 (CCK-8, Sigma). The half maximal inhibitory concentrations (IC50) of norcantharidin and NOC15 on Jurkat T cells and NHL cells were calculated.
In this example, a model of phorbol 12-myristate 13-acetate plus ionomycin (PMAI) activated leukemia Jurkat T cells model was employed to investigate the effects of the NOC15 on human leukemia cells (Jurkat T cells) and human lymphoblast cells (NHL).

Jurkat T cells = test: Cell cycle distribution by flow cytometry, Jurkat T cells; assay type: cell-based, human; conditions: for percentage of cells in subG1 phase: FIG. 5, FIG. 7
Protocol: (§1) Cultured cells with or without pre-treatment of the compounds of this invention (i.e., norcantharidin, NOC15, or NC15, 10-60 μM for 48 hours) were harvested from the cultured media and fixed by incuating with 75% iced cold ehtanol and kept at −20° C. until analysis. The fixed cells were then washed with PBS, and treated with […] (200 μg/mL, 500 μL) for about 1.5 hour at 37° C. Precipitated cells were collected by centrifugation and re-suspended in a buffer solution containing propidium iodine (PI) (40 μg/ml) and incubated in the dark for 20 min at 20-25° C. before being subject to flow cytometry analysis, where cell numbers at respective cell cycles were determined.
Cell cycle distribution was determined by flow cytometry as described in the “Materials and Methods” section. Results is depicted in FIG. 5.
In this example, Jurkat T cells were treated with or without NC15 (2.513 μM) for 24 or 48 hours before being subject to cell cycle analysis. Results are depicted in FIG. 7.

HepG2 cells [2] = test: Cell cycle distribution by flow cytometry (PI), HepG2; assay type: cell-based, human; conditions: 48 hours, FIG. 2
Protocol: as §1
HepG2 cells were treated with 10-60 μM of the test compounds for 48 hours, then cell cycle distribution and apoptosis analysis was analyzed by flow cytometry, with the subG1 phase being stained with propidium idoine (PI). Results are illustrated in FIGS. 2 and 3.

HepG2 cells [3] = test: Hoechst 33528 staining, nuclear morphological changes; assay type: cell-based, human; conditions: 40 μM, 48 hours, FIG. 1
Protocol: Staining with Hoechst 33528 was performed according to the method described previously (Huang et al., Cytotechnology 2009, 59, 201-208). Briefly, cells were treated with 40 μM norcantharidin, NOC15, or NC15 for 48 hours, then washed with PBS saline and stained with Hoechst 33528 (Sigma, St. Louis, Mo., USA) at a final concentration of 10 μg/mL. The slides were examined under a fluorescence microscope. Cells with a small nucleus, a high fluorescence intensity (due to chromatin condensation) or nuclear fragmentation were considered apoptotic.
To further investigate the role of apoptosis in the cytotoxicity of NOC15 and NC15, HepG2 cells were incubated with compound 2, NOC15 and NC15, respectively, for 48 hours; then were stained with Hoechst 33528 and examined by fluorescence microscope for any topical morphological changes.

L1210 cells = test: Syngeneic L1210 tumor in vivo therapy; set-up: species or system DBA/2 mice
Protocol: The DBA/2 mice (about 7 weeks old, 18-22 g) were obtained from BioLASCO Taiwan Co., Ltd. All mice were housed in specific pathogen-free condition with ad libitum access to water and laboratory chow. A solution of L1210 cells was injected into the subcutaneous tissue to establish a syngeneic tumor. Alternatively, the L1210 cells was injected peritoneally. All animal experiments were performed in accordance with the guidelines of the Animal Welfare Committee of Taipei Veterans General Hospital (Taiwan, R.O.C.).
To inoculate tumor, L1210 cells (1×10^6 cells per injection) were injected either subcutaneously or intraperitoneally to lab animals to generate tumors on day 1. After 7 days, NOC15 or NC15 (diluted in normal saline) was administered intra-peritoneally at a dose of 18 mg/kg every day for 7 days. The average body weight (BW) of the animals was measured daily.
After treatment, mice were sacrificed, and their tumors, livers and spleens were harvested and weighted, respectively; and white blood cells (WBC) counts were also measured.
Mice were inoculated with L1210 tumor cells in accordance with the procedures described in the section of “Materials and Methods.” For in vivo therapy, animals were given 18 mg/Kg NOC15 or NC15 by intra-peritoneal route, for a period of at least 7 days. Tumor size, animal body weight, respective weights of liver and spleen, as well as the white blood cell count of each animal were then measured respectively at the indicated time. Results are depicted in FIGS. 8 to 11, respectively.

HT29 = test: MTT cell viability, HT29; assay type: cell-based, human; conditions: Homo sapiens, HT-29, 48 hours, Mean ± SD, read-out: Growth Inhibition IC50 HT-29
Protocol: (§2) Cell lines used in the present disclosure include human liver carcinonoma cell line HepG2, human bladder carcinoma cell line BFTC905, human colon carcinoma cell lines HT29 and SW480, and human leukemia cell lines HL60 and Jurkat T, and mouse lymphocytic leukemia cell line L1210. Each cell lines were cultured and maintained in Dulbecco's modified Eagle media (DMEM) or RPMI 1640 medium supplemented with 10% heat inactivated fetal bovine serum (FBS), 1% penicillin/streptomycin, in 5% CO2195% air at 37° C.
(§3) The absorbance of the solution at 540 nm was measured by spectrophotometer. The IC50 values were defined as the drug concentration that inhibit 50% cell growth by setting the viability of untreated cells as 100%. Values were represented as the mean±SD from at least 3 independent experiments.
(§4) Effects of the compounds of formula (I) of this disclosure, specifically, NOC15 and NC 15, on HepG2 cells (liver carcinoma), BFTC905 (bladder carcinoma), HT29 (colon carcinoma), SW480 (colon carcinoma) and HL60 (leukemia) were assessed by cell viability analysis in accordance with procedures described above, in which compound 2, and other known anti-cancer agents including 5-FU, cisplatin and doxorubicin were respectively used as positive controls.

BFTC905 = test: MTT cell viability, BFTC905; assay type: cell-based, human; conditions: Homo sapiens, BFTC-905, 48 hours, Mean ± SD, read-out: Growth Inhibition IC50 BFTC905
Protocol: as §2, §3, §4

`CC(C)=CCCC(C)=CCCC(C)=CCN1C(=O)C2C3CCC(O3)C2C1=O` (stereo not drawn) [Compound 18, N-farnesyl-7-oxabicyclo[2.2.1]heptane-2,3-dicarboximide] was tested, and the “cytotoxicity to leukemia Jurkat T cells” value [1] was “toxic”, the “number of cells in G0/G1 phase” value (Jurkat T cells; 2.513 μM, 48 hours, vs control, FIG. 7D) was “decreased” and the “percentage of cells in subG1 phase” value (Jurkat T cells; treated 24 hours (NC15 2.513 μM)) was “started to increase”. The “percentage of cells in subG1 phase” value (Jurkat T cells; treated 48 hours (NC15 2.513 μM)) was “reached a significant level”, the “fraction of apoptotic cells (subG1)” value (HepG2 cells [2]; 10 μM) was 3.7% and the “fraction of apoptotic cells (subG1)” value (HepG2 cells [2]; 60 μM) was 19.8%. The “accumulation of cells in G2/M phase” value (HepG2 cells [2]; 10-60 μM) was “inducing the accumulation of cells in G2/M phase”, the “nuclear morphological changes (apoptosis features)” value (HepG2 cells [3]) was “Significant morphological features of apotosis” and the weight of liver (L1210 cells; IP-inoculated tumor, 18 mg/kg i.p., FIG. 9B) was “improved significantly”. For the same compound, the weight of spleen (L1210 cells; IP-inoculated tumor, 18 mg/kg i.p., FIG. 9C) was “improved significantly”, the “increase in life span” value (L1210 cells; SC-inoculated tumors, 18 mg/kg i.p. daily, FIG. 8A) was “about 40%” and the “weight of s.c. tumor” value (L1210 cells; SC-inoculated, 18 mg/kg i.p., FIG. 9A) was “Significant reduction”. For the same compound, the “white blood cell (WBC) counts” value (L1210 cells; day 14, SC- or IP-injected L1210, 18 mg/kg i.p., FIG. 10) was “significant reductions”, the IC50 (HT29) was 14.8 ± 1.9 µM and the IC50 (BFTC905) was 9.3 ± 0.6 µM.
